Earlier results, collected in patent publication US20140171511A1, “Cough Reducing Product” (priority 2011, published 2014).

How the values were obtained:
[1] = test system: IBS and gut pain sensitivity; details: regular intake of capsaicin powder
[2] = inhaled capsaicin as research tool, past 2 decades
[3] = relative to capsaicin, used to calculate equivalent dose

Structure (SMILES) | IBS and gut pain sensitivity [1] | serious adverse reactions [2] | Typical equivalent strength [3] [%]
COc1cc(CNC(=O)CCCC/C=C/C(C)C)ccc1O [Capsaicin, 8-Methyl-N-vanillyl-trans-6-nonenamide] | improvement | no serious adverse reactions reported | 100
COc1cc(CNC(=O)CCCCCC(C)C)ccc1O [Nordihydrocapsaicin] | – | – | 10
